SMILES strings stand for the structures.

For this assay, the target named is T1, GacS (12–166)-His (Pseudomonas aeruginosa, UniProt G3XD98).
T1 sequence (G3XD98 12-166): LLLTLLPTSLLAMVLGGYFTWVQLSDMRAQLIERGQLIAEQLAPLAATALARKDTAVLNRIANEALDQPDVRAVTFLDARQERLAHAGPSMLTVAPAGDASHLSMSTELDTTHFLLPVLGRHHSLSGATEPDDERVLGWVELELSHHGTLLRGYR
Put plainly: microscale thermophoresis. In kind it is binding.

For orientation: Kd means a measure of binding affinity in units of concentration. Low readings indicate higher affinity, high ones lower affinity. `CCCCCCNC(=O)CNc1nc2ccc(OC)cc2s1` [SN12, N-Hexyl-2-((6-methoxybenzo[d]thiazol-2-yl)amino)acetamide] came in with a Kd of 12.8 ± 0.68 µM.

(Values after PMC11628855 (Acta Pharmaceutica Sinica. B, 2024).)
